Calls of active or inactive are those of the source. The calls were made as follows: active = viability on the fitted dose curve at most 10% of control; inactive = the rest.
System: CN0375-F725-PDC multi-cell spheroids, viability
Assay: Anticancer human tumor CN0375-F725-PDC patient-derived colon carcinoma cell line growth inhibition [TAK]
Details: for IC50: curve of first compound; for viability, T/C: stronger effect = lower value
Source text: Combinatorial screen of targeted agents with TAK-243 and ipatasertib in multi-cell type tumor spheroids
A high-throughput screen of multi-cell type tumor spheroids was designed to identify active combinations of targeted small molecules and TAK-243 or ipatasertib. Complex spheroids include a stromal component modeled by human endothelial cells (HUVEC) and fibroblasts modeled by human mesenchymal stem cells (MSCs). The concentration ranges selected for each drug and investigational agent were based upon clinically achievable concentrations if the clinical Cmax of the agent was known.
Compounds. The drugs and investigational agents: TAK-243 (785004), ipatasertib (767898), everolimus (733504), selumetinib (741078), bortezomib (756655), trametinib (758246), ixazomib (758254), vemurafenib (761431), dabrafenib (764134), sapanisertib (764658), alpelisib (765974), and copanlisib (816437), were obtained from the National Cancer Institute (NCI) Developmental Therapeutics Program Chemical Repository. The FDA-approved anticancer drug set is available from the NCI Developmental Therapeutics Program. […] The stock solutions were prepared in dimethyl sulfoxide (DMSO, Sigma-Aldrich, St. Louis, MO, cat. D2650) at 800-fold the tested concentration and stored at -70 degrees C prior to their use. All drugs and investigational agents were tested over a range starting from a high concentration at or near the clinical Cmax and decreasing in half-log increments. If the clinical Cmax for an agent had not been determined, the highest concentration tested was 10 microM.
NCI60 Cell Culture. NCI60 cell lines were obtained from the NCI Developmental Therapeutics Program Tumor Repository. For each lot of cells, the Repository performed Applied Biosystems AmpFLSTR Identifiler testing with PCR amplification to confirm consistency with the published Identifier STR profile for each cell line. Cells were kept in continuous culture for no more than 20 passages. The optimal seeding densities for each of the cell lines at each time point assessed were determined prior to performing the concentration response studies. Briefly, the NCI60 human tumor lines were grown as monolayers in RPMI 1640 medium supplemented with 10% FBS and 2 mmol/L L-glutamine.
An additional 2 lines were from the NCI60 cell line panel including melanomas, MALME-3M and SK-MEL-2. Pooled donor human umbilical vein endothelial cells (HUVEC, Lonza, cat. CC-2519) and human mesenchymal stem cells (hMSC, Lonza, cat. PT-2501) were purchased from Lonza (Walkersville, MD).
PDMR cell lines were grown in complete medium (DC medium): Dulbecco's modified Eagle's medium (DMEM)/F12 supplemented with 5% fetal bovine serum (FBS), 2 mM L-glutamine, 100 U/mL penicillin and 100 µg/ml streptomycin, 0.4 µg/ml hydrocortisone, 10 ng/ml epidermal growth factor (EGF) recombinant human protein, 24 µg/mL adenine, and 0.1 mg/mL primocin. During culture from frozen stock vials, PDMR cells were cultured in the same medium containing 10 µM Y-27632 (see Table 3). The PDCs were cultured in complete DMEM/F12 media without 10 microM Y-27632 dihydrochloride for at least two passages prior to the screen. The pooled donor HUVEC and hMSC were cultured in endothelial cell growth medium 2 (PromoCell, Heidelberg, Germany, cat. C-22011) and mesenchymal stem cell growth medium 2 (PromoCell, cat. C-28009), respectively. For all experiments, HUVEC and hMSC were used at passages </=5.
For the pre-screen, cell seeding densities were determined from a titration spanning the range from 5,000 to 313 cells per well. The mct-spheroids including 60% malignant cells, 25% HUVEC and 15% MSC dispensed as a mixture into U-bottom Ultra-Low Attachment 384-well plates (Corning, NY)
High-throughput Drug Combination Screening.
Prior to their inoculation into 384-well plates, malignant cells, HUVEC, and hMSC were removed from T flasks using TrypLE express (Thermo Fisher Scientific, cat. 12605036) and harvested by centrifugation for 5 min at 233 x g. […]
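For IC50 in this document: spheroids exposed to drugs for seven days.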
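For viability, T/C in this document: spheroids exposed to drugs for seven days.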

CC(=O)Nc1cccc(-n2c(=O)n(C3CC3)c(=O)c3c(Nc4ccc(I)cc4F)n(C)c(=O)c(C)c32)c1 + CC(C)NCC(C(=O)N1CCN(c2ncnc3c2C(C)CC3O)CC1)c1ccc(Cl)cc1
IC50 (second compound 0.3 µM): 9.39 nM
IC50 (second compound 0.949 µM): 5.66 nM
IC50 (second compound 3 µM): 5.23 nM
IC50 (second compound 9.49 µM): 4.87 nM
IC50 (second compound 30 µM): 1.23 nM
viability, T/C (second compound 0.3 µM, first compound 94.9 pM): 99.7%
viability, T/C (second compound 0.3 µM, first compound 0.0003 µM): 93%
viability, T/C (second compound 0.3 µM, first compound 0.000949 µM): 74.4%
viability, T/C (second compound 0.3 µM, first compound 0.003 µM): 68.9%
viability, T/C (second compound 0.3 µM, first compound 0.00949 µM): 48.6%
viability, T/C (second compound 0.3 µM, first compound 0.03 µM): 33.7%
viability, T/C (second compound 0.949 µM, first compound 94.9 pM): 92.4%
viability, T/C (second compound 0.949 µM, first compound 0.0003 µM): 86.3%
viability, T/C (second compound 0.949 µM, first compound 0.000949 µM): 75.5%
viability, T/C (second compound 0.949 µM, first compound 0.003 µM): 57.1%
viability, T/C (second compound 0.949 µM, first compound 0.00949 µM): 44.3%
viability, T/C (second compound 0.949 µM, first compound 0.03 µM): 31.5%
viability, T/C (second compound 3 µM, first compound 94.9 pM): 88.1%
viability, T/C (second compound 3 µM, first compound 0.0003 µM): 83.5%
viability, T/C (second compound 3 µM, first compound 0.000949 µM): 70%
viability, T/C (second compound 3 µM, first compound 0.003 µM): 56.3%
viability, T/C (second compound 3 µM, first compound 0.00949 µM): 43.6%
viability, T/C (second compound 3 µM, first compound 0.03 µM): 30.1%
viability, T/C (second compound 9.49 µM, first compound 94.9 pM): 81.4%
viability, T/C (second compound 9.49 µM, first compound 0.0003 µM): 82.7%
viability, T/C (second compound 9.49 µM, first compound 0.000949 µM): 69.9%
viability, T/C (second compound 9.49 µM, first compound 0.003 µM): 57.4%
viability, T/C (second compound 9.49 µM, first compound 0.00949 µM): 40.3%
viability, T/C (second compound 9.49 µM, first compound 0.03 µM): 26.1%
viability, T/C (second compound 30 µM, first compound 94.9 pM): 70%
viability, T/C (second compound 30 µM, first compound 0.0003 µM): 67.5%
viability, T/C (second compound 30 µM, first compound 0.000949 µM): 53%
viability, T/C (second compound 30 µM, first compound 0.003 µM): 36.1%
viability, T/C (second compound 30 µM, first compound 0.00949 µM): 24.1%
viability, T/C (second compound 30 µM, first compound 0.03 µM): 13.6%

CC(C)CC(NC(=O)C(Cc1ccccc1)NC(=O)c1cnccn1)B(O)O (stereo not given) + CC(C)NCC(C(=O)N1CCN(c2ncnc3c2C(C)CC3O)CC1)c1ccc(Cl)cc1
IC50 (second compound 0.3 µM): 7.39 nM
IC50 (second compound 0.949 µM): 7.9 nM
IC50 (second compound 3 µM): 7.86 nM
IC50 (second compound 9.49 µM): 5.85 nM
IC50 (second compound 30 µM): 2.49 nM
viability, T/C (second compound 0.3 µM, first compound 31.6 pM): 100%
viability, T/C (second compound 0.3 µM, first compound 0.0001 µM): 99%
viability, T/C (second compound 0.3 µM, first compound 0.000316 µM): 93.6%
viability, T/C (second compound 0.3 µM, first compound 0.001 µM): 99.5%
viability, T/C (second compound 0.3 µM, first compound 0.00316 µM): 92.1%
viability, T/C (second compound 0.3 µM, first compound 0.01 µM): 34.9%
viability, T/C (second compound 0.949 µM, first compound 31.6 pM): 99.6%
viability, T/C (second compound 0.949 µM, first compound 0.0001 µM): 101%
outcome (second compound 0.949 µM, first compound 0.000316 µM): inactive
viability, T/C (second compound 0.949 µM, first compound 0.001 µM): 90.3%
viability, T/C (second compound 0.949 µM, first compound 0.00316 µM): 93%
viability, T/C (second compound 0.949 µM, first compound 0.01 µM): 38.8%
viability, T/C (second compound 3 µM, first compound 31.6 pM): 89.3%
viability, T/C (second compound 3 µM, first compound 0.0001 µM): 93%
viability, T/C (second compound 3 µM, first compound 0.000316 µM): 91.8%
viability, T/C (second compound 3 µM, first compound 0.001 µM): 93.1%
viability, T/C (second compound 3 µM, first compound 0.00316 µM): 82.8%
viability, T/C (second compound 3 µM, first compound 0.01 µM): 41.2%
viability, T/C (second compound 9.49 µM, first compound 31.6 pM): 85.2%
viability, T/C (second compound 9.49 µM, first compound 0.0001 µM): 95.3%
viability, T/C (second compound 9.49 µM, first compound 0.000316 µM): 87.2%
viability, T/C (second compound 9.49 µM, first compound 0.001 µM): 93.6%
viability, T/C (second compound 9.49 µM, first compound 0.00316 µM): 76.7%
viability, T/C (second compound 9.49 µM, first compound 0.01 µM): 26.6%
viability, T/C (second compound 30 µM, first compound 31.6 pM): 72.3%
viability, T/C (second compound 30 µM, first compound 0.0001 µM): 86.8%
viability, T/C (second compound 30 µM, first compound 0.000316 µM): 84.4%
viability, T/C (second compound 30 µM, first compound 0.001 µM): 76.6%
viability, T/C (second compound 30 µM, first compound 0.00316 µM): 42.9%
viability, T/C (second compound 30 µM, first compound 0.01 µM): 9.84%
